ChEMBL document CHEMBL1201862, “PubChem BioAssay data set” (2004)
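All cell lines were grown in 96-well plates and treated with compound for 48 hours. Abbreviation: GI50, concentration required for 50% inhibition of growth.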 Active and inactive are the calls of the source. Rule as the data show it: active = GI50 up to about 1.1 µM and inactive = higher.

Tests used:
Experiment in all cases: growth of human tumour cells (NCI), 48 h
[1] = tested on: HT-29
[2] = tested on: NCI-H522
[3] = tested on: DU-145
[4] = tested on: SN12C
[5] = tested on: MOLT-4
[6] = tested on: SF-295
[7] = tested on: ACHN
[8] = tested on: HOP-62
[9] = tested on: NCI/ADR-RES
[10] = tested on: HCT-116
[11] = tested on: K562
[12] = tested on: Malme-3M
[13] = tested on: A549
[14] = tested on: T47D
[15] = tested on: NCI-H226
[16] = tested on: MDA-MB-231
[17] = tested on: SF-268
[18] = tested on: HCT-15
[19] = tested on: RXF 393
[20] = tested on: RPMI-8226

Row | SMILES | GI50 [1] | GI50 [2] | GI50 [3] | GI50 [4] | GI50 [5] | GI50 [6] | GI50 [7] | GI50 [8] | GI50 [9] | GI50 [10] | GI50 [11] | GI50 [12] | GI50 [13] | GI50 [14] | GI50 [15] | GI50 [16] | GI50 [17] | GI50 [18] [µM] | GI50 [19] | GI50 [20]
1 | CNC(=S)N1CCN(C(C)=O)C1=S | 67.8 µM (inactive) | 45.1 µM (inactive) | > 100 µM (inactive) | 57.7 µM (inactive) | 30.8 µM (inactive) | 25.4 µM (inactive) | > 100 µM (inactive) | 70.5 µM (inactive) | 69.3 µM (inactive) | > 100 µM (inactive) | 54.2 µM (inactive) | 12.7 µM (inactive) | 38.8 µM (inactive) | 19.5 µM (inactive) | 22.4 µM (inactive) | 4.27 µM (inactive) | 54.8 µM (inactive) | 34.4 | – | –
2 | O=C1c2ccccc2NC(=O)C2C1C(c1ccccc1)CC2(O)c1ccccc1 (stereo not drawn) | 26 µM (inactive) | – | > 100 µM (inactive) | > 100 µM (inactive) | 15.4 µM (inactive) | 43.6 µM (inactive) | 37 µM (inactive) | 79.1 µM (inactive) | 31.7 µM (inactive) | 16.9 µM (inactive) | – | > 100 µM (inactive) | 30 µM (inactive) | 49.7 µM (inactive) | – | 34.4 µM (inactive) | > 100 µM (inactive) | 50.5 | 80.9 µM (inactive) | –
3 | Clc1cc(OCC23CC4CC(CC(C4)C2)C3)nc(OCC23CC4CC(CC(C4)C2)C3)n1 | > 100 µM (inactive) | > 100 µM (inactive) | > 100 µM (inactive) | > 100 µM (inactive) | > 100 µM (inactive) | 41.7 µM (inactive) | > 100 µM (inactive) | > 100 µM (inactive) | > 100 µM (inactive) | > 100 µM (inactive) | > 100 µM (inactive) | > 100 µM (inactive) | > 100 µM (inactive) | > 100 µM (inactive) | – | > 100 µM (inactive) | > 100 µM (inactive) | > 100 | > 100 µM (inactive) | > 100 µM (inactive)
4 | Cc1c2c(c(O)c3c(O)cccc13)C(=O)C1(O)C(=O)C(C(=O)NCNc3ccc(C(N)=O)cn3)=C(O)C(N(C)C)C1C2 (stereo not drawn) | 3.89 µM (inactive) | – | 4.39 µM (inactive) | 4.78 µM (inactive) | 2.74 µM (inactive) | 2.87 µM (inactive) | – | 6 µM (inactive) | 5.5 µM (inactive) | 4.06 µM (inactive) | 2.4 µM (inactive) | 3.28 µM (inactive) | 2.96 µM (inactive) | 5.61 µM (inactive) | 2.94 µM (inactive) | 3.78 µM (inactive) | 3.61 µM (inactive) | 2.8 | 2.89 µM (inactive) | 1.83 µM (inactive)
5 | Clc1cccc(Cl)c1C1SCc2nc3cc4ccccc4cc3n21 (stereo not drawn) | > 100 µM (inactive) | – | > 100 µM (inactive) | > 100 µM (inactive) | > 100 µM (inactive) | > 100 µM (inactive) | > 100 µM (inactive) | > 100 µM (inactive) | > 100 µM (inactive) | > 100 µM (inactive) | > 100 µM (inactive) | > 100 µM (inactive) | > 100 µM (inactive) | > 100 µM (inactive) | > 100 µM (inactive) | > 100 µM (inactive) | > 100 µM (inactive) | > 100 | > 100 µM (inactive) | > 100 µM (inactive)
6 | CCOC(=O)c1ccc2nc(NC(=O)COC(=O)CSc3nc(C)cc(C)n3)sc2c1 | 66.2 µM (inactive) | 64 µM (inactive) | 28.3 µM (inactive) | 39 µM (inactive) | 42.5 µM (inactive) | 36.6 µM (inactive) | 46.5 µM (inactive) | 13.7 µM (inactive) | 48.4 µM (inactive) | 77.3 µM (inactive) | > 100 µM (inactive) | > 100 µM (inactive) | 42.9 µM (inactive) | 16.7 µM (inactive) | – | 66.4 µM (inactive) | 67.8 µM (inactive) | 46.6 | 30.3 µM (inactive) | 53 µM (inactive)
7 | CN1CCC23c4c5ccc(O)c4OC2c2[nH]c4ccccc4c2CC3(O)C1C5 (stereo not drawn) | 31.9 µM (inactive) | 37 µM (inactive) | 97.7 µM (inactive) | 70.5 µM (inactive) | 18.6 µM (inactive) | 52.4 µM (inactive) | 24.4 µM (inactive) | > 100 µM (inactive) | > 100 µM (inactive) | 35.4 µM (inactive) | 14 µM (inactive) | 20.6 µM (inactive) | 53 µM (inactive) | 20.8 µM (inactive) | – | 31.5 µM (inactive) | 32.1 µM (inactive) | 25.6 | 23.5 µM (inactive) | 19.5 µM (inactive)
8 | C=CC[C@@H]1C=C[C@@H](C(=O)OC)n2c(=O)n(-c3ccccc3)c(=O)n21 | > 100 µM (inactive) | > 100 µM (inactive) | > 100 µM (inactive) | > 100 µM (inactive) | > 100 µM (inactive) | > 100 µM (inactive) | > 100 µM (inactive) | > 100 µM (inactive) | > 100 µM (inactive) | > 100 µM (inactive) | > 100 µM (inactive) | – | – | > 100 µM (inactive) | > 100 µM (inactive) | > 100 µM (inactive) | > 100 µM (inactive) | > 100 | – | > 100 µM (inactive)
9 | O=C(CCN1CCOCC1)Nc1ccc(F)cc1F | > 100 µM (inactive) | > 100 µM (inactive) | > 100 µM (inactive) | > 100 µM (inactive) | > 100 µM (inactive) | > 100 µM (inactive) | > 100 µM (inactive) | > 100 µM (inactive) | > 100 µM (inactive) | > 100 µM (inactive) | > 100 µM (inactive) | > 100 µM (inactive) | > 100 µM (inactive) | > 100 µM (inactive) | > 100 µM (inactive) | > 100 µM (inactive) | > 100 µM (inactive) | > 100 | – | > 100 µM (inactive)
10 | C=CCN1C[C@@H](C)N([C@@H](c2ccc(C(=O)N(CC)CC)cc2)c2cccc(OC)c2)C[C@@H]1C | > 100 µM (inactive) | > 100 µM (inactive) | > 100 µM (inactive) | > 100 µM (inactive) | > 100 µM (inactive) | > 100 µM (inactive) | > 100 µM (inactive) | > 100 µM (inactive) | > 100 µM (inactive) | > 100 µM (inactive) | > 100 µM (inactive) | > 100 µM (inactive) | > 100 µM (inactive) | > 100 µM (inactive) | > 100 µM (inactive) | > 100 µM (inactive) | > 100 µM (inactive) | > 100 | – | > 100 µM (inactive)
11 | O=C1N=C(S)NNC12c1ccccc1-c1ccccc12 | > 10 µM (inactive) | – | > 10 µM (inactive) | > 10 µM (inactive) | > 10 µM (inactive) | – | – | > 10 µM (inactive) | > 10 µM (inactive) | – | > 10 µM (inactive) | > 10 µM (inactive) | > 10 µM (inactive) | 1.98 µM (inactive) | > 10 µM (inactive) | > 10 µM (inactive) | > 10 µM (inactive) | > 10 | – | > 10 µM (inactive)
